Results on 1 compound are retold here after patent US20120114636A1, “LOW MOLECULAR WEIGHT CYCLIN E (LMW-E) AS A BIOMARKER FOR PERSONALIZATION OF CANCER THERAPIES” (The Board of Regents of the University of Texas System, priority 2009, published 2012).

Holding throughout (assay type): cell-based, human
For test [1], the system named is CDK2-associated kinase activity in MCF-7/Ac1 cells. Briefly: CDK2-associated kinase assay (histone H1). Particulars: with 25 nM AD, 3 days. On the procedure: FIG. 28. Effect of increasing concentrations of letrozole in the presence of 25 nM AD on CDK2 kinase activity, activated CDK2 and Rb phosphorylation of MCF7/Ac1 human breast cancer cells. MCF-7/Ac1 cells were treated with the indicated concentrations of letrozole and AD for 3 days. CDK2 kinase assays were performed by immunoprecipitating equal amounts of cell lysate (250 μg) with monoclonal antibodies to CDK2 (D12, sc-6248) coupled to protein G beads, using histone H1 as substrate. […] The same cell lysates were subjected to western blot analysis (50 μg of protein) with the indicated antibodies.

Test [2] deals with cyclin E and CDK2 complexes in MCF-7/Ac1 cells. Nature of the test: Immunoprecipitation of cyclin E or CDK2 followed by western blot for p21 and p27. How it is done: Immunoprecipitation and Immunoblotting. Two hundred fifty μg of cell extracts were used per immunoprecipitation with polyclonal antibody to cyclin E or polyclonal antibody to CDK2, coupled to protein A beads. After being washed, the immunoprecipitates were subjected to electrophoresis in 13% gels, transferred to Immobolin P, blocked, and incubated with the indicated antibodies as already described.
MCF-7/Ac1 cells were treated with the indicated concentrations of letrozole and AD for 3 days. Cyclin E kinase assays were performed by immunoprecipitating equal amounts of cell lysate (250 μg) with monoclonal antibodies to cyclin E coupled to protein A beads, using histone H1 as substrate. […] The same cell lysates were subjected to western blot analysis (50 μg of protein) with the indicated antibodies. […] The same cell lysates were first immunoprecipitated with cyclin E followed by western blot for p21 and p27. […] The same cell lysates were first immunoprecipitated with CDK2 followed by western blot for p21 and p27. The levels of proteins were measured by densitometric scanning of the corresponding bands and normalized using actin values. The values indicated at the bottom were compared to the values obtained with untreated cells.
For orientation: Immunoblotting shows a protein as a band on a membrane.

Test [3] relates to CDK2 protein in MCF-7/Ac1 cells. Briefly: Western blot of CDK2 protein levels in adenovirus-infected cells. Particulars: letrozole. How it is done: Western blot analysis. Cell lysates were prepared and subjected to western blot analysis as described previously (Akli et al., 2004). Briefly, 50 μg of protein were subjected to electrophoresis on SDS-PAGE and transferred to Immobilon P overnight at 4° C. at […] constant voltage. The blots were blocked overnight at 4° C. in BLOTTO [5% nonfat dried milk in 20 mM Tris, 137 mM NaCl, and 0.05% Tween (pH 7.6)]. After being washed, the blots were incubated in primary antibodies for 3 h. Primary antibodies used were cyclin E (HE-12; Santa Cruz Biotechnology), p21 (0P64; Oncogene Research Products, Boston, Mass.), p27 (K25020; BD Biosciences-Transduction Laboratories, Lexington, Ky.), cyclin-dependent kinase 2 (CDK2; Transduction Laboratories), and actin (Chemicon International, Inc., Temecula, Calif.). Blots were then incubated with goat anti-mouse or anti-rabbit immunoglobulin-horseradish peroxidase conjugate at a dilution of 1:5000 in BLOTTO for 1 h and finally washed and developed by using the Renaissance chemiluminescence system as directed by the manufacturer (Perkin-Elmer Life Sciences, Inc., Boston, Mass.). Western blots were quantitated by densitometric analysis using IPLab Gel software (Scientific Image Processing, Vienna, Va.). Densitometric values of actin were used to standardize for equal protein loading. These values were introduced into the software Graph-Pad Prism version 4.0 (GraphPad Software, Inc., San Diego, Calif.) for statistical analysis.
MCF-7/Ac1 cells were cultured in IMEM with 10% charcoal-stripped serum medium (CSSM) without phenol red and with 600 μg/ml of G418 for 4 days before plating. […] Cells were then infected with the indicated adenoviruses (at 4000 m.o.i.) 24 hours before drug treatment.

The subject of test [4] is CDK2 kinase activity in MCF-7/Ac1 cells. Nature of the test: CDK2 kinase assay in LacZ or cyclin E-T1 adenovirus-infected cells. The settings on record: 1 μM letrozole. On the procedure: MCF-7/Ac1 cells were cultured in IMEM with 10% charcoal-stripped serum medium (CSSM) without phenol red and with 600 μg/ml of G418 for 4 days before plating. Plates were then infected with LacZ (4000 m.o.i) or increasing concentration of cyclin E-T1 adenoviruses 24 hours before drug treatment. Cells were then left untreated (E2W, estrogen withdrawal) or treated with 25 nM AD (AD) or treated with 25 nM AD and 1 μM letrozole (AD+Let) and collected 3 days later for CDK2 kinase activity. CDK2 kinase assays were performed by immunoprecipitating equal amounts of cell lysate (250 μg) with monoclonal antibodies to CDK2 (D12, sc-6248) coupled to protein G beads, using histone H1 as substrate. The bar graph represents the densitometric values of the phosphorylated histone H1 substrate.

The test system of test [5] is MCF-7/Ac1 cells. Nature of the test: Sequential AD/letrozole then roscovitine treatment: cell number and CDK2 western blot. The settings on record: LMW cyclin E overexpressing cells. On the procedure:
Medium alone or medium plus DMSO were used as controls. A schematic of the treatment strategy is depicted in FIG. 25A. At the conclusion of the treatment, cells were enumerated and subjected to western blot analysis with CDK2 (total) and phospho-CDK2 antibodies.
Cells were then infected with the indicated adenoviruses (at 4000 m.o.i.) 24 hours before drug treatment.

Values joined by “and” are separate entries in the source; they are usually repeats but may differ in a detail not shown here. Identical values can stand only once.

`N#Cc1ccc(C(c2ccc(C#N)cc2)n2cncn2)cc1` [letrozole]: the “concentration that blocked the AD-induced increase in CDK2-associated kinase activity” value in test [1] was ≤ 0.125 µM. Also, the “p21 binding to both cyclin E and CDK2” value in test [2] (letrozole with 25 nM AD) is given as “slightly decreased”. Besides, in test [2] (letrozole, dose-dependent, with 25 nM AD), the “increase in p27 binding to both cyclin E and CDK2 over levels in AD treated cells” value is reported as “up to 2 fold”. The CDK2 protein levels entry in test [3] (LMW cyclin E (T1, T2) overexpressing cells) is “did not drop following letrozole treatment”. For the same compound, the “total CDK2 protein levels, percent of the level in untreated, uninfected cells” value in test [3] (cyclin EL overexpressing cells) is 50%. In addition, the “total CDK2 protein levels, percent of the level in uninfected cells” value in test [3] (uninfected and LacZ infected cells) is reported as 10%. Also, the “block of CDK2 kinase activity” value in test [4] (LMW cyclin E (T1) expressing cells, any m.o.i) is “cannot block”. The “block of AD-induced increase in CDK2 kinase activity” value in test [4] (LacZ expressing cells) was “completely blocks”. Besides, the “increase in AD-induced proliferation not prevented by letrozole” value in test [5] (AD plus 1 μM letrozole) is 2.5 fold and 2.8 fold. Further, the “phosphorylated/unphosphorylated CDK2 ratio” value in test [5] (AD plus letrozole) is listed as 134-234%.
